Reference: US10800792B2, “Inhibitors of Bruton's tyrosine kinase and method of their use” (JANSSEN PHARMACEUTICA NV, priority 2015, dated 2020)

Target: unphosphorylated-BTK kinase domain (UP-BTK), GST-tagged human BTK (389-659aa) (Homo sapiens (Human), UniProt Q06187)
Assay: BTK kinase Lanthascreen binding assay
Conditions: unphosphorylated-BTK kinase domain, 50 nM Tracer 236, 60 minutes; pIC50 = negative log of the IC50 in molar
Outline: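 Tracer-displacement binding assay against the non-phosphorylated enzyme, read by Lanthascreen. Reported: pIC50.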

Chain of unphosphorylated-BTK kinase domain (UP-BTK), GST-tagged human BTK (389-659aa) (Q06187 389-659): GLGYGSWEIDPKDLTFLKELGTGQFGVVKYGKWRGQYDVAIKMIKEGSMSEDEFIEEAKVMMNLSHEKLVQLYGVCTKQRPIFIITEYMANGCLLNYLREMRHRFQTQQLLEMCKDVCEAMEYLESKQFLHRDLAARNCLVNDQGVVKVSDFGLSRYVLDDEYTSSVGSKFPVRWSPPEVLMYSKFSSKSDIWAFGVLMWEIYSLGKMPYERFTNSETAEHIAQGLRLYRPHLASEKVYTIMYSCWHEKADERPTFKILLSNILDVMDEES

SMILES	BTK_I_binding pIC50
C=CC(=O)N1CCC[C@@H](NC(=O)c2sc3nccc4c3c2NC(=O)N4c2cccc(-c3cccc(Cl)c3)c2)C1 [Example 507, (R)—N-(1-Acryloylpiperidin-3-yl)-5-(3′-chloro-[1,1′-biphenyl]-3-yl)-4-oxo-4,5-dihydro-3H-1-thia-3,5,8-triazaacenaphthylene-2-carboxamide]	7.8
C=CC(=O)N1CCC[C@@H](NC(=O)c2sc3nccc4c3c2NC(=O)N4c2cccc(-c3ccccc3Cl)c2)C1 [Example 510, (R)—N-(1-Acryloylpiperidin-3-yl)-5-(2′-chloro-[1,1′-biphenyl]-3-yl)-4-oxo-4,5-dihydro-3H-1-thia-3,5,8-triazaacenaphthylene-2-carboxamide]	8.0
C=CC(=O)N1CCC[C@@H](NC(=O)c2sc3nccc4c3c2NC(=O)N4c2ccnc(-c3ccccc3)c2)C1 [Example 512, (R)—N-(1-Acryloylpiperidin-3-yl)-4-oxo-5-(2-phenylpyridin-4-yl)-4,5-dihydro-3H-1-thia-3,5,8-triazaacenaphthylene-2-carboxamide]	7.8
C=CC(=O)N1CCC[C@@H](NC(=O)c2sc3nccc4c3c2NC(=O)N4c2ccc(Oc3ccccc3)cn2)C1 [Example 513, (R)—N-(1-Acryloylpiperidin-3-yl)-4-oxo-5-(5-phenoxypyridin-2-yl)-4,5-dihydro-3H-1-thia-3,5,8-triazaacenaphthylene-2-carboxamide]	8.2
C=CC(=O)N1CCC[C@@H](NC(=O)c2sc3nccc4c3c2NC(=O)N4c2cccc(-c3ccc(F)cc3F)c2)C1 [Example 515, (R)—N-(1-Acryloylpiperidin-3-yl)-5-(2′,4′-difluoro-[1,1′-biphenyl]-3-yl)-4-oxo-4,5-dihydro-3H-1-thia-3,5,8-triazaacenaphthylene-2-carboxamide]	7.7
C=CC(=O)N1CCC[C@@H](NC(=O)c2sc3nccc4c3c2NC(=O)N4c2cccc(Cc3ccccc3)c2)C1 [Example 516, (R)—N-(1-Acryloylpiperidin-3-yl)-5-(3-benzylphenyl)-4-oxo-4,5-dihydro-3H-1-thia-3,5,8-triazaacenaphthylene-2-carboxamide]	7.7
C=CC(=O)N1CCC[C@@H](NC(=O)c2sc3nccc4c3c2NC(=O)N4c2cccc(-c3cccc(C)c3)c2)C1 [Example 517, (R)—N-(1-Acryloylpiperidin-3-yl)-5-(3′-methyl-[1,1′-biphenyl]-3-yl)-4-oxo-4,5-dihydro-3H-1-thia-3,5,8-triazaacenaphthylene-2-carboxamide]	7.5
C=CC(=O)N1CCC[C@@H](NC(=O)c2sc3nccc4c3c2NC(=O)N4c2cccc(C3CCCCC3)c2)C1 [Example 519, (R)—N-(1-Acryloylpiperidin-3-yl)-5-(3-cyclohexylphenyl)-4-oxo-4,5-dihydro-3H-1-thia-3,5,8-triazaacenaphthylene-2-carboxamide]	7.3
C=CC(=O)N1CCC[C@@H](NC(=O)c2sc3nccc4c3c2NC(=O)N4c2cccc(-c3ccc(C)cc3)c2)C1 [Example 521, (R)—N-(1-Acryloylpiperidin-3-yl)-5-(4′-methyl-[1,1′-biphenyl]-3-yl)-4-oxo-4,5-dihydro-3H-1-thia-3,5,8-triazaacenaphthylene-2-carboxamide]	7.5
C=CC(=O)N1CCC[C@@H](NC(=O)c2sc3nccc4c3c2NC(=O)N4c2ccc3c(c2)OC(F)(F)O3)C1 [Example 525, (R)—N-(1-Acryloylpiperidin-3-yl)-5-(2,2-difluorobenzo[d][1,3]dioxol-5-yl)-4-oxo-4,5-dihydro-3H-1-thia-3,5,8-triazaacenaphthylene-2-carboxamide]	7.5
C=CC(=O)N1CCC[C@@H](NC(=O)c2sc3nccc4c3c2NC(=O)N4c2cc(-c3ccccc3)ccn2)C1 [Example 526, (R)—N-(1-Acryloylpiperidin-3-yl)-4-oxo-5-(4-phenylpyridin-2-yl)-4,5-dihydro-3H-1-thia-3,5,8-triazaacenaphthylene-2-carboxamide]	7.6
C=CC(=O)N1CCC[C@@H](NC(=O)c2sc3nccc4c3c2NC(=O)N4c2cccc(Oc3ccccc3)c2)C1 [Example 527, (R)—N-(1-Acryloylpiperidin-3-yl)-4-oxo-5-(3-phenoxyphenyl)-4,5-dihydro-3H-1-thia-3,5,8-triazaacenaphthylene-2-carboxamide]	8.1
C=CC(=O)N1CCC[C@@H](NC(=O)c2sc3nccc4c3c2NC(=O)N4c2cnc(Oc3ccccc3)cn2)C1 [Example 528, (R)—N-(1-Acryloylpiperidin-3-yl)-4-oxo-5-(5-phenoxypyrazin-2-yl)-4,5-dihydro-3H-1-thia-3,5,8-triazaacenaphthylene-2-carboxamide]	7.8
C=CC(=O)N1CCC[C@@H](NC(=O)c2sc3nccc4c3c2NC(=O)N4c2cccc(C(C)C)c2)C1 [Example 529, (R)—N-(1-Acryloylpiperidin-3-yl)-5-(3-isopropylphenyl)-4-oxo-4,5-dihydro-3H-1-thia-3,5,8-triazaacenaphthylene-2-carboxamide]	7.6
C=CC(=O)N1CC[C@@H](NC(=O)c2sc3nccc4c3c2NC(=O)N4c2cccc(-c3ccccc3)c2)C1 [Example 531, (R)-5-([1,1′-Biphenyl]-3-yl)-N-(1-acryloylpyrrolidin-3-yl)-4-oxo-4,5-dihydro-3H-1-thia-3,5,8-triazaacenaphthylene-2-carboxamide]	7.5
C=CC(=O)N1CCC[C@@H](NC(=O)c2sc3nccc4c3c2NC(=O)N4c2cccc(CCC)c2)C1 [Example 533, (R)—N-(1-Acryloylpiperidin-3-yl)-4-oxo-5-(3-propylphenyl)-4,5-dihydro-3H-1-thia-3,5,8-triazaacenaphthylene-2-carboxamide]	7.5
C=CC(=O)N1CCC[C@@H](NC(=O)c2sc3nccc4c3c2NC(=O)N4c2cccc(C3CCC3)c2)C1 [Example 534, (R)—N-(1-Acryloylpiperidin-3-yl)-5-(3-cyclobutylphenyl)-4-oxo-4,5-dihydro-3H-1-thia-3,5,8-triazaacenaphthylene-2-carboxamide]	7.8
C=CC(=O)N1CCC[C@@H](NC(=O)c2sc3nccc4c3c2NC(=O)N4c2ccc(Oc3ccccc3)c(C)c2)C1 [Example 536, (R)—N-(1-Acryloylpiperidin-3-yl)-5-(3-methyl-4-phenoxyphenyl)-4-oxo-4,5-dihydro-3H-1-thia-3,5,8-triazaacenaphthylene-2-carboxamide]	7.5
C=CC(=O)N1CCC[C@@H](NC(=O)c2sc3nccc4c3c2NC(=O)N4c2cncc(-c3ccccc3)c2)C1 [Example 537, (R)—N-(1-Acryloylpiperidin-3-yl)-4-oxo-5-(5-phenylpyridin-3-yl)-4,5-dihydro-3H-1-thia-3,5,8-triazaacenaphthylene-2-carboxamide]	7.6
C=CC(=O)N1CCC[C@@H](NC(=O)c2sc3nccc4c3c2NC(=O)N4c2cccc(-c3cccnc3)c2)C1 [Example 538, (R)—N-(1-Acryloylpiperidin-3-yl)-4-oxo-5-(3-(pyridin-3-yl)phenyl)-4,5-dihydro-3H-1-thia-3,5,8-triazaacenaphthylene-2-carboxamide]	7.0
C=CC(=O)N1CCC[C@@H](NC(=O)c2sc3nccc4c3c2NC(=O)N4c2cccc(-c3ccccn3)c2)C1 [Example 540, (R)—N-(1-Acryloylpiperidin-3-yl)-4-oxo-5-(3-(pyridin-2-yl)phenyl)-4,5-dihydro-3H-1-thia-3,5,8-triazaacenaphthylene-2-carboxamide]	7.2
CN(C)C/C=C/C(=O)N1CCC[C@@H](NC(=O)c2sc3nccc4c3c2NC(=O)N4c2ccc(Oc3ccccc3)c(Cl)c2)C1 [Example 541, (R,E)-5-(3-Chloro-4-phenoxyphenyl)-N-(1-(4-(dimethylamino)but-2-enoyl)piperidin-3-yl)-4-oxo-4,5-dihydro-3H-1-thia-3,5,8-triazaacenaphthylene-2-carboxamide]	7.2
C=CC(=O)N1C[C@H](NC(=O)c2sc3nccc4c3c2NC(=O)N4c2ccc(Oc3ccccc3)cc2)[C@@H](F)C1 [Example 543, N-((3S,4S)-1-Acryloyl-4-fluoropyrrolidin-3-yl)-4-oxo-5-(4-phenoxyphenyl)-4,5-dihydro-3H-1-thia-3,5,8-triazaacenaphthylene-2-carboxamide]	7.5
C=CC(=O)N1CC[C@H](C(=O)Nc2sc3nccc4c3c2NC(=O)N4c2ccc(Oc3ccccc3)cc2C)C1 [Example 544, (S)-1-Acryloyl-N-(5-(2-methyl-4-phenoxyphenyl)-4-oxo-4,5-dihydro-3H-1-thia-3,5,8-triazaacenaphthylen-2-yl)pyrrolidine-3-carboxamide]	7.0
C=CC(=O)N1CC[C@@H](C(=O)Nc2sc3nccc4c3c2NC(=O)N4c2ccc(Oc3ccccc3)cc2C)C1 [Example 545, (R)-1-Acryloyl-N-(5-(2-methyl-4-phenoxyphenyl)-4-oxo-4,5-dihydro-3H-1-thia-3,5,8-triazaacenaphthylen-2-yl)pyrrolidine-3-carboxamide]	6.9
CNCC(=O)N1CCC[C@@H](NC(=O)c2sc3nccc4c3c2NC(=O)N4c2ccc(Oc3ccccc3)cc2)C1 [Example 546, (R)—N-(1-(2-(Methylamino)acetyl)piperidin-3-yl)-4-oxo-5-(4-phenoxyphenyl)-4,5-dihydro-3H-1-thia-3,5,8-triazaacenaphthylene-2-carboxamide]	7.4
